This assay concerns the target LTB4 receptor (Homo sapiens, UniProt Q15722). Kind of assay: [3H]LTB4 competition radioligand binding on HEK293 cells. It counts as cell-based.

Sequence of LTB4 receptor (Q15722 whole entry): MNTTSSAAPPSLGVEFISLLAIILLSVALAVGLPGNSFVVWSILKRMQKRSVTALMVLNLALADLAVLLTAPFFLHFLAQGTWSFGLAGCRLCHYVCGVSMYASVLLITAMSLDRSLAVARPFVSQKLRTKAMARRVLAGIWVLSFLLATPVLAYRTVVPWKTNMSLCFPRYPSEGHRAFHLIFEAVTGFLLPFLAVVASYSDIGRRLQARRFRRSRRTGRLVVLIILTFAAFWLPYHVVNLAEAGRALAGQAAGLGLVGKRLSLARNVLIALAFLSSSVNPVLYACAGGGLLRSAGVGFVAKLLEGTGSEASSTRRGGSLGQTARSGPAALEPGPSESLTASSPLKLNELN

In general, IC50 refers to the concentration needed to halve the response being measured. Higher therefore signals lower potency. For `CC/C=C\C/C=C\C[C@@H](O)/C=C/C=C/C=C\[C@@H](O)CCCC(=O)O` [LTB5], the IC50 was approximately 500 nM.

The values above are taken from PMC2195872 (The Journal of Experimental Medicine, 2000).
